Read-outs that look alike come from different tables or passages of the source. Blank lines part the entries; values can stand above or below the molecule they belong to.
Columns and labels:
[1] = Stability of methotrexate and 7-hydroxymethotrexate in human sodium heparin plasma and processed samples (bioanalytical validation); assay type: physicochemical
Experimental: Method validation was carried out according to the Bristol-Myers Squibb Standard Operating Procedures (SOPs) for chromatographic method validation which conforms to the U.S. FDA’s Good Laboratory Practice (GLP) regulations (21 CFR part 58). The validation experiments included but were not limited to the determination of the lower limit of quantification (LLOQ), specificity, accuracy and precision, recovery, and analyte stability under the expected conditions of sample transfer, sample storage, and sample preparation. The LLOQ of the assay was determined to be 1 ng/mL using six different lots of plasma. No interference from the endogenous components and the internal standard was observed.
The accuracy and precision data for BMS-986142, based on the maximum value from all six QC levels, obtained using one-way ANOVA in Watson are listed in Table 1. The recovery of the analyte from human plasma during extraction was determined at 3 ng/mL and 800 ng/mL for BMS-986142, at 3 ng/mL, 30 ng/mL and 750 ng/mL for methotrexate and 7-hydroxymethotrexate, by comparing the response ratios in human plasma samples spiked with the analyte prior to extraction with those spiked post-extraction. The recovery for BMS-986142 is 89-90%. The recoveries for methotrexate and 7-hydroxymethotrexate are 88-94% and 83-88%, respectively. The room temperature, freeze-thaw, and frozen storage stability of BMS-986142 were evaluated in triplicate or quadruplicate using Low QC, High QC, and Dilution QC. The reinjection integrity was assessed by re-injecting an entire run. The deviations of the mean predicted concentrations of the test samples from the nominal concentrations were used as an indicator of the stability of the analyte.

[2] = test system: animal models of arthritis; parameters: method as in PMID 21752263, PMID 21521773; details: cited from earlier work
[3] = test system: rat adjuvant-induced arthritis model; parameters: method as in PMID 22228807; details: alone or in combination with MTX; cited from earlier work
[4] = Safety (adverse events), Study 2 MTX-DDI in healthy male participants
Experimental: This portion of the study was designed to assess the effect of BMS-986142 on the PK of MTX since MTX is used as a background therapy in RA patients and all patients will receive MTX when the phase 2 study of BMS-986142 is conducted. Eligible participants were confined to the clinical facility for the duration of treatment (15 days). Healthy participants were administered a single oral dose of 7.5 mg MTX on day 1. On day 2, participants received leucovorin (a single oral dose of 15 mg) as a preventive measure for MTX toxicity. After a washout period (days 2–5), BMS-986142 was administered on days 6–10 in 350-mg QD doses. A concomitant dose of MTX (7.5 mg) was administered on day 8, followed by leucovorin (15 mg) on day 9 (Online Resource 2). BMS-986142 was administered with 240 mL of water, and a minimum amount of additional water was permitted to allow dosing of all medications. Only healthy male participants (ages ≥18 to ≤50 years) were eligible for the MTX-DDI assessment in study 2. Other key inclusion and exclusion criteria were identical to those in study 1.
Participants were monitored for adverse events (AEs) throughout the study. Clinical laboratory tests, vital sign measurements, 12-lead ECGs, and physical examinations were performed at selected times throughout the dosing interval. Safety data was recorded in the participants’ medical records, and assessments were performed for emergent AEs or serious AEs (SAEs). For all AEs, causal relationship to the study drug was determined by an investigator.

[5] = Effect of BMS-986142 on single-dose plasma PK of MTX (DDI); assay type: in vivo, human; details: for AUC(0-inf): read-out: AUC(inf), geometric mean (adjusted); for Cmax: read-out: Cmax, geometric mean (adjusted)
Experimental: Blood samples for the measurement of BMS-986142 were collected up to 168 h after dosing of BMS-986142 on day 1 for participants in SAD. In MAD, blood samples were collected up to 24 h on day 1 and up to 120 h on day 14 (the last day of treatment). Blood samples for the measurement of MTX were collected up to 48 h after dosing of MTX on days 1 and 8.
Plasma samples were analyzed for BMS-986142 levels with a validated method using liquid chromatography tandem mass spectrometry (LC-MS/MS) detection. The analyte was extracted from 50 μL of plasma using a liquid–liquid extraction method. Methyl tert-butyl ether was used as the extraction solvent. The lower limit of quantification (LLOQ) was 1.00 ng/mL in plasma. Plasma samples were analyzed for methotrexate levels using LC-MS/MS detection. Analytes were isolated from 50 μL plasma through solid phase extraction using Waters Oasis MAX, 10-mg, 96-well SPE plates. The final extract was analyzed using LC-MS/MS detection. LLOQ was 1.00 ng/mL in plasma. Detailed methodology quantitating the concentration level of BMS-986142 and MTX is provided in Online Resource 10.
Individual subject pharmacokinetic parameters for BMS-986142 and MTX were derived by a non-compartmental method using validated PK software (WinNonLin version 6.3; Pharsight Corporation, Mountain View, CA, USA). The following PK parameters for BMS-986142 and MTX were derived from plasma concentration versus time data: maximum observed plasma concentration (Cmax); minimum observed plasma concentration (Cmin); time to maximum observed plasma concentration (Tmax); area under the plasma concentration-time curve from time zero to the time of the last quantifiable concentration (AUC(0-T)), from time zero extrapolated to infinite time (AUC(inf)), and in one dosing interval (AUC(TAU)); terminal plasma half-life (T1/2); and AUC accumulation index (AI_AUC). AI_AUC was calculated to divide AUC(TAU) on day 14 by AUC(TAU) on day 1.
Statistical analyses were conducted to assess the effect of coadministration of BMS-986142 on the PK of MTX. For all treatment comparisons, a linear mixed-effect model was fitted to the log-transformed PK parameters Cmax, AUC(0-T), and AUC(inf). Point estimates and 90% CIs for differences on the log-scale were exponentiated to obtain estimates for geometric mean ratios (GMRs) and respective 90% CIs on the original scale. Sample size determination is based on consideration of the precision of the estimate of the GMRs of AUCs of MTX with and without BMS-986142. With 9 evaluable subjects, there will be an 80% probability that the 90% CI of AUC(INF) GMR will be within 89.9 to 111.2% of the point estimate. These precision estimates are based on an assumption that Cmax and AUC(INF) of MTX are log-normally distributed with intrasubject CV of 14.67 and 10.38%, respectively, as calculated from Namour et al..

[6] = 7-hydroxymethotrexate, 24 hours at RT in Plasma, High QC 750
[7] = 7-hydroxymethotrexate, 24 hours at RT in Plasma, Low QC 3.00
[8] = 7-hydroxymethotrexate, 142 h Processed sample stability, High QC 750
[9] = 7-hydroxymethotrexate, 142 h Processed sample stability, Low QC 3.00
[10] = 7-hydroxymethotrexate, 6 days at 5 °C Re-injection integrity, High QC 750
[11] = 7-hydroxymethotrexate, 6 days at 5 °C Re-injection integrity, Low QC 3.00
[12] = 7-hydroxymethotrexate, 449 day at -20 °C in Plasma, High QC 750
[13] = 7-hydroxymethotrexate, 449 day at -20 °C in Plasma, Low QC 3.00
[14] = 7-hydroxymethotrexate, After 4 Freeze-Thaw Cycle in Plasma, High QC 750
[15] = 7-hydroxymethotrexate, After 4 Freeze-Thaw Cycle in Plasma, Low QC 3.00
[16] = MTX 7.5 mg (Day 1) + leucovorin 15 mg (Day 2), n = 12
[17] = male, human, plasma, oral, Treatment D: single-dose methotrexate 7.5 mg (day 1) + leucovorin 15 mg (day 2)
[18] = male, human, plasma, oral, Treatment F: BMS-986142 350 mg QD + single-dose methotrexate 7.5 mg (day 8) + leucovorin 15 mg (day 9)
[19] = methotrexate with BMS-986142 350 mg QD vs methotrexate alone
[20] = methotrexate, 24 hours at RT in Plasma, High QC 750
[21] = methotrexate, 24 hours at RT in Plasma, Low QC 3.00
[22] = methotrexate, 142 h Processed sample stability, High QC 750
[23] = methotrexate, 142 h Processed sample stability, Low QC 3.00
[24] = methotrexate, 6 days at 5 °C Re-injection integrity, High QC 750
[25] = methotrexate, 6 days at 5 °C Re-injection integrity, Low QC 3.00
[26] = methotrexate, 449 day at -20 °C in Plasma, High QC 750
[27] = methotrexate, 449 day at -20 °C in Plasma, Low QC 3.00
[28] = methotrexate, After 4 Freeze-Thaw Cycle in Plasma, High QC 750
[29] = methotrexate, After 4 Freeze-Thaw Cycle in Plasma, Low QC 3.00

Stability, %Dev [1, 6]: -0.3% | Stability, Mean Conc. [1, 6]: 747 ng/mL | Stability, %Dev [1, 7]: 9.2% | Stability, Mean Conc. [1, 7]: 3.28 ng/mL | Stability, %Dev [1, 8]: -8.1% | Stability, Mean Conc. [1, 8]: 689 ng/mL | Stability, %Dev [1, 9]: -8.7% | Stability, Mean Conc. [1, 9]: 2.74 ng/mL | Stability, %Dev [1, 10]: 0.4% | Stability, Mean Conc. [1, 10]: 753 ng/mL | Stability, %Dev [1, 11]: 5.7% | Stability, Mean Conc. [1, 11]: 3.17 ng/mL | Stability, %Dev [1, 12]: -0.3% | Stability, Mean Conc. [1, 12]: 747 ng/mL | Stability, %Dev [1, 13]: -10.4% | Stability, Mean Conc. [1, 13]: 2.69 ng/mL | Stability, %Dev [1, 14]: 0.2% | Stability, Mean Conc. [1, 14]: 751 ng/mL | Stability, %Dev [1, 15]: 1.4% | Stability, Mean Conc. [1, 15]: 3.04 ng/mL
Structure (SMILES): CN(Cc1nc2c(N)nc(N)nc2[nH]c1=O)c1ccc(C(=O)N[C@@H](CCC(=O)O)C(=O)O)cc1 [7-hydroxymethotrexate]

Structure (SMILES): Cc1c(NC(=O)c2cc3c(s2)CCCC3)cccc1-c1cn(C)c(=O)c(Nc2ccc([C@@H]3C(=O)N(C)CCN3C)cc2)n1 [GDC-0834]
Efficacy in animal models of arthritis [2]: Dose-dependent efficacy

Structure (SMILES): C=CC(=O)N1CCC[C@@H](n2nc(-c3ccc(Oc4ccccc4)cc3)c3c(N)ncnc32)C1 [PCI-32765]
Efficacy in animal models of arthritis [2]: Dose-dependent efficacy

Structure (SMILES): CN1CCN(c2ccc(Nc3cc(-c4cccc(-n5ccc6cc(C7CC7)cc(F)c6c5=O)c4CO)cn(C)c3=O)nc2)CC1 [RN486]
Efficacy on joint and systemic inflammation [3]: efficacious in reducing joint and systemic inflammation

AUC(0-T), geometric mean (adjusted) ([5]; Treatment D: single-dose methotrexate 7.5 mg (day 1) + leucovorin 15 mg (day 2)): 613 ng·h/mL | AUC(0-inf) [5, 17]: 625 ng·h/mL | Cmax [5, 17]: 178 ng/mL | AUC(0-t) ([5]; male, human, plasma, oral, Treatment F: BMS-986142 350 mg QD + single-dose methotrexate 7.5 mg (day 8) + leucovorin 15 mg (day 9), read-out: AUC(0-T), geometric mean (adjusted)): 638 ng·h/mL | AUC(0-inf) [5, 18]: 654 ng·h/mL | Cmax [5, 18]: 186 ng/mL | AUC(0-T), adjusted geometric mean ratio F vs D [5, 19]: 1.041 | AUC(inf), adjusted geometric mean ratio F vs D [5, 19]: 1.045 | Cmax, adjusted geometric mean ratio F vs D [5, 19]: 1.046 | Stability, %Dev [1, 20]: 0.2% | Stability, Mean Conc. [1, 20]: 751 ng/mL | Stability, %Dev [1, 21]: -0.1% | Stability, Mean Conc. [1, 21]: 3.00 ng/mL | Stability, %Dev [1, 22]: -13.1% | Stability, Mean Conc. [1, 22]: 652 ng/mL | Stability, %Dev [1, 23]: -9.2% | Stability, Mean Conc. [1, 23]: 2.72 ng/mL | Stability, %Dev [1, 24]: -2.2% | Stability, Mean Conc. [1, 24]: 734 ng/mL | Stability, %Dev [1, 25]: 3.4% | Stability, Mean Conc. [1, 25]: 3.10 ng/mL | Stability, %Dev [1, 26]: 0.6% | Stability, Mean Conc. [1, 26]: 755 ng/mL | Stability, %Dev [1, 27]: -9.9% | Stability, Mean Conc. [1, 27]: 2.70 ng/mL | Stability, %Dev [1, 28]: -2.1% | Stability, Mean Conc. [1, 28]: 734 ng/mL | Stability, %Dev [1, 29]: 3.7% | Stability, Mean Conc. [1, 29]: 3.11 ng/mL
Structure (SMILES): CN(Cc1cnc2nc(N)nc(N)c2n1)c1ccc(C(=O)N[C@@H](CCC(=O)O)C(=O)O)cc1 [methotrexate, reference compound]
AE SOC: Gastrointestinal Disorders [4, 16]: 0 n (%) | AE SOC: General disorders and administration site conditions [4, 16]: 1 (8.3) n (%) | AE SOC: Infections and infestations [4, 16]: 0 n (%) | AE SOC: Injury, poisoning and procedural complications [4, 16]: 0 n (%) | AE SOC: Nervous system disorders [4, 16]: 1 (8.3) n (%) | AE SOC: Psychiatric disorders [4, 16]: 0 n (%) | AE: Anxiety [4, 16]: 0 n (%) | AE: Arthropod Bite [4, 16]: 0 n (%) | AE: Asthenia [4, 16]: 1 (8.3) n (%) | AE: Dizziness [4, 16]: 1 (8.3) n (%) | AE: Fatigue [4, 16]: 0 n (%) | AE: Headache [4, 16]: 0 n (%) | AE: Nausea [4, 16]: 0 n (%) | AE: Sleep Disorder [4, 16]: 0 n (%) | AE: Tremor [4, 16]: 1 (8.3) n (%) | Total participants with an event [4, 16]: 1 (8.3) n (%) | Number of AEs reported ([4]; Study 2, single-dose MTX on day 1): Three

— paper PMC5423977, “Safety, pharmacokinetics, and pharmacodynamics of BMS-986142, a novel reversible BTK inhibitor, in healthy participants” (European Journal of Clinical Pharmacology, 2017)
